Measured values: patent US20220242851A1, “CRYSTAL FORM AND SALT OF QUINAZOLINE COMPOUND AND PREPARATION METHOD THEREOF” (SHENZHEN JINRUI FOUNDATION BIOTECH CO., LTD, priority 2019, published 2022)

Tests used:
[1] = test system: subcutaneous xenograft tumor of human gastric cancer NCI-N87 cells; assay: In vivo pharmacodynamics, NCI-N87 subcutaneous xenograft (Assay Example 4); design: species or system mouse; settings: 0.5 mg/kg, compared with the vehicle control group
Method: Purpose of the assay: in vivo efficacy of the assay compound disclosed herein on subcutaneous xenograft tumor of human gastric cancer NCI-N87 cells in a BALB/c nude mouse model was evaluated.
Animals of the assay: female BALB/c nude mice, 6-8 weeks old, weighted 18-22 grams; supplier: shanghai sippr bk laboratory animals Ltd.
(§1) Human gastric cancer NCI-N87 cells were cultured in monolayer in vitro. The culture conditions were RPMI-1640 medium plus 10% fetal bovine serum, 100 U/mL penicillin, 100 μg/mL streptomycin, 37° C., 5% CO2. The passaging was performed by conventional digestion with trypsin-EDTA twice a week. When the cell saturation was 80%-90%, the cells were collected, counted and inoculated.
0.2 mL (10×10^6) of NCI-N87 cells (PBS+Matrigel, 1:1) were inoculated subcutaneously on the right back of each mouse. […]
The assay index was to investigate whether tumor growth is inhibited, delayed or cured. Tumor diameter was measured twice a week with a vernier caliper. […]
The antitumor efficacy of the compounds was evaluated by TGI (%) or tumor proliferation rate T/C (%). […]
Statistical analysis included the mean and standard error of mean (SEM) of tumor volume at each time point in each group (See Table 14 for specific data). […] The comparison between groups was analyzed by T-test, and the comparison among three or more groups was analyzed by one-way ANOVA. […]

[2] = test system: subcutaneous xenograft tumor of human esophageal carcinoma OE21 cells; assay: In vivo pharmacodynamics, OE21 subcutaneous xenograft (Assay Example 5); design: species or system mouse
Method: Purpose of the assay: in vivo efficacy of the assay compound on subcutaneous xenograft tumor of human esophageal carcinoma OE21 cells in a BALB/c nude mouse model was evaluated.
Animals of the assay: female BALB/c nude mice, 6-8 weeks old, weighted 17-23 grams; supplier: shanghai sippr bk laboratory animals Ltd.
as §1, with “esophageal carcinoma OE21” for “gastric cancer NCI-N87”, “U/mL streptomycin and 2 mM glutamine,” for “μg/mL streptomycin,”
0.1 ml […] OE21 cells (PBS) were inoculated subcutaneously on the right back of each mouse. When the average tumor volume reached 112 mm^3, administration to each group was started.
The assay compound was formulated into a 0.15 mg/mL to 0.3 mg/mL clear or suspension solution in the solvents of 10% NMP+10% ethylene glycol stearate+80% water.
The assay index was to investigate whether tumor growth is inhibited, delayed or cured. Tumor diameter was measured twice a week with vernier caliper. The calculation formula of tumor volume was: V=0.5a×b^2, wherein a and b represent the long and short diameters of tumor, respectively.
The antitumor efficacy of the compounds was evaluated by TGI (%) or relative tumor proliferation rate T/C (%). TGI (%) reflects the tumor growth inhibition rate. TGI (%) was calculated as follows: TGI (%)=[(1−average tumor volume at the end of administration for a certain treatment group−average tumor volume at the beginning of administration for this treatment group))/(average tumor volume at the end of treatment for a vehicle control group−average tumor volume at the beginning of administration for this vehicle control group)]×100%.
Relative tumor proliferation rate T/C (%): the calculation formula was as follows: T/C (%)=average tumor volume at the end of administration for a certain treatment group/average tumor volume at the end of treatment for the vehicle control group×100%.
Statistical analysis included the mean and standard error of mean (SEM) of tumor volume at each time point in each group. One-way ANOVA was used for comparison among three or more groups. […] SPSS 17.0 was used for all data analysis. p<0.05 was considered a significant difference.

CYP1A2 = target: T1, CYP1A2 (Homo sapiens, UniProt P05177); assay: Inhibition of CYP enzyme activity in human liver microsome, CYP1A2; type: in vitro ADME; settings: microsomes
T1 construct: in the assay of CYP enzyme activity in human liver microsome; from tissue; host or cells: human liver microsome
T1 sequence (P05177 1-516): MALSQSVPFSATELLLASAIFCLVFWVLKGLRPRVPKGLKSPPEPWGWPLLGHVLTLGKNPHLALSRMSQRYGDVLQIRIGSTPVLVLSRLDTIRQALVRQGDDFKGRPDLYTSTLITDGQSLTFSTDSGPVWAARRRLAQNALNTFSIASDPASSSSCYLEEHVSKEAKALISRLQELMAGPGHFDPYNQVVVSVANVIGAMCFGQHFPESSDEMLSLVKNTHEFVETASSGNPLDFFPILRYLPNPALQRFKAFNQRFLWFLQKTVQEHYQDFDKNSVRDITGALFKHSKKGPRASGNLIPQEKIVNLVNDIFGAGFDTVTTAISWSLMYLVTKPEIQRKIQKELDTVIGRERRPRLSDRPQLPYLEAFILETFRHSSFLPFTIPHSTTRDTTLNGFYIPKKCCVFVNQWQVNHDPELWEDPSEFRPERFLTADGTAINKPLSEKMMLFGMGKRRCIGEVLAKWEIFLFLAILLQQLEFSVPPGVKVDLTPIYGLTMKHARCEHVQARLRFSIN
From the text: (§2) The results of the compound disclosed herein and the reference compound Poziotinib in the assay of CYP enzyme activity in human liver microsome were shown in the following table (Table 17).

CYP2C9 = target: T2, CYP2C9 (Homo sapiens, UniProt P11712); assay: Inhibition of CYP enzyme activity in human liver microsome, CYP2C9; type: in vitro ADME; settings: versus Poziotinib
T2 construct: in the assay of CYP enzyme activity in human liver microsome; from tissue; host or cells: human liver microsome
T2 sequence (P11712 whole entry): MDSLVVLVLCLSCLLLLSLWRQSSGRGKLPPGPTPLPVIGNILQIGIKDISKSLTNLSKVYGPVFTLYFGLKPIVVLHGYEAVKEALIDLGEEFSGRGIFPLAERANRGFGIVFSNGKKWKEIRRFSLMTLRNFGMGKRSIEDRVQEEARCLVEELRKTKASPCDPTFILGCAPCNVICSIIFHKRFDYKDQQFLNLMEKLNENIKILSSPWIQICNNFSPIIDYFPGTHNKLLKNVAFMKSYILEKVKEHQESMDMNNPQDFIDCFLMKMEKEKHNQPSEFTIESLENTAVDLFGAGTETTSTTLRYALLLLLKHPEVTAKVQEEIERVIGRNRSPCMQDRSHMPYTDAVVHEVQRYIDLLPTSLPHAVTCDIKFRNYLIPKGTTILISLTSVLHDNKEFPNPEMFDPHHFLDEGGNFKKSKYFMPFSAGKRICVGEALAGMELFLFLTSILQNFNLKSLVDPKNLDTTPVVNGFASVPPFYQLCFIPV
From the text: as §2

CYP2D6 = target: T3, CYP2D6 (Homo sapiens, UniProt P10635); assay: Inhibition of CYP enzyme activity in human liver microsome, CYP2D6; type: in vitro ADME; settings: versus Poziotinib
T3 construct: in the assay of CYP enzyme activity in human liver microsome; from tissue; host or cells: human liver microsome
T3 sequence (P10635 whole entry): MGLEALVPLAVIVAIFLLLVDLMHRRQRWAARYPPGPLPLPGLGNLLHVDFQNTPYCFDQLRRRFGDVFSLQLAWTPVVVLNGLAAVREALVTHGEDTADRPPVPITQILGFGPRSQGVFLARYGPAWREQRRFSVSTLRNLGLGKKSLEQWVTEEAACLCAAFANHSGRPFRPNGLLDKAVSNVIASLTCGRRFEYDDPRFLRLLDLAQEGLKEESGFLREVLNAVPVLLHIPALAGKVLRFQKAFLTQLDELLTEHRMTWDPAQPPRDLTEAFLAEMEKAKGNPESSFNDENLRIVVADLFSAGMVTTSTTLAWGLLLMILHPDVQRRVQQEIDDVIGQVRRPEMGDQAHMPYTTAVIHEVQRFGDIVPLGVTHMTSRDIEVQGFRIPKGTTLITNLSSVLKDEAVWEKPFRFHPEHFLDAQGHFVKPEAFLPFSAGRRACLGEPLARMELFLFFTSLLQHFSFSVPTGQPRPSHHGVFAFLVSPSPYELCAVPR
From the text: as §2

CYP3A4 = target: T4, CYP3A4 (Homo sapiens, UniProt P08684); assay: Inhibition of CYP enzyme activity in human liver microsome, CYP3A4; type: in vitro ADME
T4 construct: in the assay of CYP enzyme activity in human liver microsome; from tissue; host or cells: human liver microsome
T4 sequence (P08684 whole entry): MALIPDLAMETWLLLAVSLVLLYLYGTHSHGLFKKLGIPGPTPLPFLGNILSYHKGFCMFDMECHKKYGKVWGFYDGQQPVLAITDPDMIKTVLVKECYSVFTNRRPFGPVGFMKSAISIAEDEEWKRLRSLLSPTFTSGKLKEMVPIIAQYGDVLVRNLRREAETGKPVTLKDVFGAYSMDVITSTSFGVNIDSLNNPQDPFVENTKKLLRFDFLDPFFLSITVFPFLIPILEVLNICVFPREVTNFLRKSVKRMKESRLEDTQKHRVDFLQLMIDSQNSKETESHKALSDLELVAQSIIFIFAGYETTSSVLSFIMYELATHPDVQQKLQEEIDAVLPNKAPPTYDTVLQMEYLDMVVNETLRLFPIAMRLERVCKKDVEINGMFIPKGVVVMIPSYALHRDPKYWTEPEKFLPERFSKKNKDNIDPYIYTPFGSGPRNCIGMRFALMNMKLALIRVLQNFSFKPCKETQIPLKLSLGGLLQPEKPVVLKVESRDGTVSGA
From the text: as §2

## C=CC(=O)N1[C@@H]2CC[C@H]1C[C@H](Nc1cc3c(Nc4ccc(Cl)c(Cl)c4F)ncnc3cc1OC)C2 [Compound of formula (I)]
[1]
  tumor inhibitory effect (in words): significant tumor inhibitory effect
[2]; 2/1.5 mg/kg
  body weight and clinical signs (in words): varying degrees of body weight loss and dandruff
[2]; 2/1.5 mg/kg, compared with the vehicle control group
  tumor inhibitory effect (in words): significant tumor inhibitory effect
[2]; 2/1.5 mg/kg, Day 21, Mean + SEM
  Tumor volume (Day 21): 55 ± 13 mm3
[2]; discussion, high-dose group
  effect on the body weight of mice (in words): little effect on the body weight of mice
[2]; low dose of 0.5 mpk
  efficacy at low dose (in words): comparable to that of the reference compound Poziotnib and the compound of formula (I) at a high dose of 1.5 mpk
[2]; mouse, in vivo
  dark yellow urine, suggestion of toxicity (in words): without the toxicity suggestion of dark yellow urine
CYP1A2
  inhibitory activity on CYP1A2 (in words): no inhibitory activity
CYP2C9
  activity on CYP2C9, times better than the reference compound: 2 times
CYP2D6
  activity on CYP2D6, times better than the reference compound: 6 times
CYP3A4
  inhibitory activity on CYP3A4 (in words): no inhibitory activity
